Experimental data as given in publication PMC11705217, “Substrate preference, RNA binding and active site versatility of Stenotrophomonas maltophilia nuclease SmNuc1, explained by a structural study” (The Febs Journal, 2024).

Molecular target: T1, SmNuc1 (SmNuc1WT) (Stenotrophomonas maltophilia, UniProt B2FSF8)
T1 construct: gene Smlt3806; mature enzyme of 246 residues, 28 kDa, N-terminal Trp27 (native signal removed, expressed with MalE signal peptide), C-terminal His-tag kept, pET303/CT-His, E. coli Lemo21(DE3); three Zn2+ in active site
Assay: in crystallo cleavage (crystal soak, […]), X-ray structure shows product […]'-GMP
Type: biochemical
Details: pH 6.5; only product 5'-GMP seen in structure 9EMG

**Q.** For `Nc1nc2c(ncn2[C@@H]2O[C@@H]3COP(=O)(O)O[C@H]4[C@@H](O)[C@H](n5cnc6c(=O)[nH]c(N)nc65)O[C@@H]4COP(=O)(O)O[C@H]3[C@H]2O)c(=O)[nH]1` [c‐di‐GMP], which “in crystallo cleavage (crystal soak, 5 mM), X-ray structure shows product 5'-GMP” value is on record?
**A.** c‐di‐GMP was soaked into a crystal of SmNuc1, resulting in the SmNuc1:GMP* structure
